Source: BindingDB's records for doi:10.1021/jm010496a (Pfizer, 2002)
pIC50: −log10 of the molar value.

Biological target: Fructose-1,6-bisphosphatase 1 (Sus scrofa) (UniProt P00636)
Assay: Concentration required for 50% Inhibition against recombinant wild type pig enzyme (F16BP) Fructose-1,6-bisphosphatase

Fructose-1,6-bisphosphatase 1 (Sus scrofa), sequence (P00636 whole entry, looked up): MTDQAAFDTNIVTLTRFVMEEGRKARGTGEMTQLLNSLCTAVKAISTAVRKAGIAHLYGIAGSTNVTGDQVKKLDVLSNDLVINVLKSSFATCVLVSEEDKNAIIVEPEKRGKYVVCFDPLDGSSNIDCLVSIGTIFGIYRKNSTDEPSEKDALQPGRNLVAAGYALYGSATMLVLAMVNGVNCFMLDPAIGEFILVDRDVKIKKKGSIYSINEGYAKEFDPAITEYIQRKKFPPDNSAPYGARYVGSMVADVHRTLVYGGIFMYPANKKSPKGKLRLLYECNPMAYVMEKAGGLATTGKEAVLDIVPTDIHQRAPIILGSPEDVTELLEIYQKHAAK

A pIC50 of 5.02 was found for `CCOc1cc2nc(CN(C)C)nc(Nc3cccc(-c4csc(C(N)=O)n4)c3)c2cc1OCC` [4-[3-(2-Dimethylaminomethyl-6,7-diethoxy-quinazolin-4-ylamino)-phenyl]-thiazole-2-carboxylic acid amide] in this work.
